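48-hour exposure; five concentrations; linearly interpolated endpoints. Here, GI50 denotes the concentration required for 50% inhibition of growth. TGI marks complete inhibition of growth.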
Experiments:
Test in all cases: NCI anticancer screen, dose series, 48 h
SR leukemia = system: SR leukemia
OVCAR-4 ovarian = system: OVCAR-4 ovarian
MALME-3M melanoma = system: MALME-3M melanoma
PC-3 prostate = system: PC-3 prostate
HCT-15 colon = system: HCT-15 colon
MDA-MB-435 = system: MDA-MB-435
U251 CNS = system: U251 CNS
HS 578T breast = system: HS 578T breast
NCI-H460 lung = system: NCI-H460 lung
DU-145 prostate = system: DU-145 prostate
SK-MEL-2 melanoma = system: SK-MEL-2 melanoma
NCI-H226 lung = system: NCI-H226 lung
HOP-62 NSCLC = system: HOP-62 NSCLC
A498 renal = system: A498 renal
SNB-19 CNS = system: SNB-19 CNS
OVCAR-8 ovarian = system: OVCAR-8 ovarian
SF-268 CNS = system: SF-268 CNS
COLO 205 colon = system: COLO 205 colon
K-562 leukemia = system: K-562 leukemia
CCRF-CEM leukemia = system: CCRF-CEM leukemia
HL-60(TB) leukemia = system: HL-60(TB) leukemia
SK-MEL-28 melanoma = system: SK-MEL-28 melanoma
NCI-H23 lung = system: NCI-H23 lung
M14 melanoma = system: M14 melanoma
ACHN renal = system: ACHN renal
IGROV1 ovarian = system: IGROV1 ovarian
TK-10 renal = system: TK-10 renal
786-0 renal = system: 786-0 renal
HCC-2998 colon = system: HCC-2998 colon
MOLT-4 leukemia = system: MOLT-4 leukemia
SK-OV-3 ovarian = system: SK-OV-3 ovarian
MCF7 breast = system: MCF7 breast
SF-295 CNS = system: SF-295 CNS
SNB-75 CNS = system: SNB-75 CNS
A549 NSCLC = system: A549 NSCLC
HOP-92 NSCLC = system: HOP-92 NSCLC
RXF 393 renal = system: RXF 393 renal
NCI-H522 lung = system: NCI-H522 lung
SN12C renal = system: SN12C renal
RPMI-8226 leukemia = system: RPMI-8226 leukemia
NCI/ADR-RES ovarian = system: NCI/ADR-RES ovarian
UACC-257 melanoma = system: UACC-257 melanoma
OVCAR-5 ovarian = system: OVCAR-5 ovarian
OVCAR-3 ovarian = system: OVCAR-3 ovarian
HT29 colon = system: HT29 colon
SF-539 CNS = system: SF-539 CNS
BT-549 breast = system: BT-549 breast
UACC-62 melanoma = system: UACC-62 melanoma
HCT-116 colon = system: HCT-116 colon
KM12 colon = system: KM12 colon
CAKI-1 renal = system: CAKI-1 renal
SW-620 colon = system: SW-620 colon
UO-31 renal = system: UO-31 renal
EKVX NSCLC = system: EKVX NSCLC
SK-MEL-5 melanoma = system: SK-MEL-5 melanoma

SMILES: COc1ccc2c(c1)O/C(=C\c1ccc([N+](=O)[O-])s1)C2=O
- GI50 (SR leukemia): 0.12 µM
- TGI (SR leukemia): 0.759 µM
- GI50 (OVCAR-4 ovarian): 1.59 µM
- TGI (OVCAR-4 ovarian): 4.91 µM
- GI50 (MALME-3M melanoma): 4.99 µM
- TGI (MALME-3M melanoma): > 100 µM
- GI50 (PC-3 prostate): 1.81 µM
- TGI (PC-3 prostate): > 100 µM
- GI50 (HCT-15 colon): 0.259 µM
- TGI (HCT-15 colon): 0.825 µM
- GI50 (MDA-MB-435): > 100 µM
- TGI (MDA-MB-435): > 100 µM
- GI50 (U251 CNS): 2.07 µM
- TGI (U251 CNS): > 20.9 µM
- GI50 (HS 578T breast): 2.61 µM
- TGI (HS 578T breast): > 25.2 µM
- GI50 (NCI-H460 lung): 2.32 µM
- TGI (NCI-H460 lung): > 100 µM
- GI50 (DU-145 prostate): 2.53 µM
- TGI (DU-145 prostate): > 24.8 µM
- TGI (SK-MEL-2 melanoma): > 27 µM
- GI50 (NCI-H226 lung): > 31.3 µM
- TGI (NCI-H226 lung): > 100 µM
- GI50 (HOP-62 NSCLC): 8.11 µM
- TGI (HOP-62 NSCLC): > 31.6 µM
- GI50 (A498 renal): > 27.4 µM
- TGI (A498 renal): > 75.7 µM
- GI50 (SNB-19 CNS): > 22 µM
- TGI (SNB-19 CNS): > 100 µM
- GI50 (OVCAR-8 ovarian): 2.19 µM
- TGI (OVCAR-8 ovarian): > 100 µM
- GI50 (SF-268 CNS): 1.8 µM
- TGI (SF-268 CNS): > 19.8 µM
- GI50 (COLO 205 colon): 1.88 µM
- TGI (COLO 205 colon): > 100 µM
- GI50 (K-562 leukemia): 0.285 µM
- TGI (K-562 leukemia): 1.31 µM
- GI50 (CCRF-CEM leukemia): 0.478 µM
- TGI (CCRF-CEM leukemia): > 100 µM
- TGI (HL-60(TB) leukemia): > 100 µM
- GI50 (SK-MEL-28 melanoma): 17.1 µM
- TGI (SK-MEL-28 melanoma): > 100 µM
- GI50 (NCI-H23 lung): 1.33 µM
- TGI (NCI-H23 lung): 5.92 µM
- GI50 (M14 melanoma): 2.89 µM
- TGI (M14 melanoma): > 100 µM
- GI50 (ACHN renal): 1.41 µM
- TGI (ACHN renal): > 100 µM
- GI50 (IGROV1 ovarian): 1.14 µM
- GI50 (TK-10 renal): > 22.5 µM
- TGI (TK-10 renal): > 100 µM
- GI50 (786-0 renal): 11.4 µM
- TGI (786-0 renal): > 71.6 µM
- GI50 (HCC-2998 colon): 2.91 µM
- TGI (HCC-2998 colon): > 100 µM
- GI50 (MOLT-4 leukemia): 2.26 µM
- TGI (MOLT-4 leukemia): > 100 µM
- GI50 (SK-OV-3 ovarian): > 22.7 µM
- TGI (SK-OV-3 ovarian): > 62.7 µM
- GI50 (MCF7 breast): 0.621 µM
- TGI (MCF7 breast): > 100 µM
- TGI (SF-295 CNS): > 47.4 µM
- GI50 (SNB-75 CNS): 2.36 µM
- TGI (SNB-75 CNS): 39.2 µM
- GI50 (A549 NSCLC): 3.46 µM
- TGI (A549 NSCLC): > 100 µM
- GI50 (HOP-92 NSCLC): 1.57 µM
- TGI (HOP-92 NSCLC): 5.37 µM
- GI50 (RXF 393 renal): 1.85 µM
- TGI (RXF 393 renal): > 20.8 µM
- GI50 (NCI-H522 lung): 0.241 µM
- TGI (NCI-H522 lung): 0.738 µM
- GI50 (SN12C renal): 2.28 µM
- TGI (SN12C renal): > 100 µM
- GI50 (RPMI-8226 leukemia): 1.69 µM
- TGI (RPMI-8226 leukemia): > 100 µM
- GI50 (NCI/ADR-RES ovarian): 4.52 µM
- TGI (NCI/ADR-RES ovarian): > 100 µM
- TGI (UACC-257 melanoma): > 100 µM

SMILES: Nc1nc(Cl)c2ncn(Cc3ccc(-c4ccc(CCl)cc4)cc3)c2n1
- GI50 (SR leukemia): 3.09 µM
- TGI (SR leukemia): > 100 µM
- GI50 (OVCAR-4 ovarian): 8.12 µM
- TGI (OVCAR-4 ovarian): 43.6 µM
- GI50 (PC-3 prostate): 9.08 µM
- TGI (PC-3 prostate): > 100 µM
- GI50 (MDA-MB-435): 14.6 µM
- TGI (MDA-MB-435): 36.3 µM
- GI50 (HS 578T breast): 43.4 µM
- TGI (HS 578T breast): > 100 µM
- GI50 (NCI-H460 lung): 20.4 µM
- TGI (NCI-H460 lung): 69.1 µM
- GI50 (DU-145 prostate): 12.6 µM
- TGI (DU-145 prostate): 25.6 µM
- GI50 (SK-MEL-2 melanoma): 33.9 µM
- TGI (SK-MEL-2 melanoma): > 100 µM
- GI50 (NCI-H226 lung): 3.47 µM
- TGI (NCI-H226 lung): 17.9 µM
- GI50 (HOP-62 NSCLC): 15 µM
- TGI (HOP-62 NSCLC): 34.8 µM
- GI50 (A498 renal): 35.2 µM
- TGI (A498 renal): > 100 µM
- GI50 (OVCAR-5 ovarian): 20.8 µM
- TGI (OVCAR-5 ovarian): > 100 µM
- GI50 (OVCAR-3 ovarian): 7.3 µM
- TGI (OVCAR-3 ovarian): 32 µM
- GI50 (SNB-19 CNS): 38.4 µM
- TGI (SNB-19 CNS): > 100 µM
- GI50 (OVCAR-8 ovarian): 7.86 µM
- TGI (OVCAR-8 ovarian): 29.5 µM
- GI50 (SF-268 CNS): 16.2 µM
- TGI (SF-268 CNS): 36.5 µM
- GI50 (COLO 205 colon): 7.17 µM
- TGI (COLO 205 colon): 74.4 µM
- GI50 (K-562 leukemia): 13.9 µM
- TGI (K-562 leukemia): > 100 µM
- GI50 (HT29 colon): 11.3 µM
- TGI (HT29 colon): 43.1 µM
- GI50 (SF-539 CNS): 10.9 µM
- TGI (SF-539 CNS): 26.6 µM
- GI50 (BT-549 breast): 7.13 µM
- TGI (BT-549 breast): 37.8 µM
- GI50 (HL-60(TB) leukemia): 19.4 µM
- TGI (HL-60(TB) leukemia): > 100 µM
- GI50 (UACC-62 melanoma): 9.26 µM
- TGI (UACC-62 melanoma): 23 µM
- GI50 (SK-MEL-28 melanoma): 14.7 µM
- TGI (SK-MEL-28 melanoma): 33.7 µM
- GI50 (NCI-H23 lung): 5.6 µM
- TGI (NCI-H23 lung): 19.9 µM
- GI50 (HCT-116 colon): 6.71 µM
- TGI (HCT-116 colon): 23.7 µM
- GI50 (M14 melanoma): 13.3 µM
- TGI (M14 melanoma): 29.4 µM
- GI50 (ACHN renal): 4.5 µM
- TGI (ACHN renal): > 100 µM
- GI50 (KM12 colon): 27.7 µM
- TGI (KM12 colon): > 100 µM
- GI50 (IGROV1 ovarian): 12.5 µM
- TGI (IGROV1 ovarian): > 100 µM
- GI50 (TK-10 renal): 6.44 µM
- TGI (TK-10 renal): 19.8 µM
- GI50 (786-0 renal): 12.9 µM
- TGI (786-0 renal): > 100 µM
- GI50 (MOLT-4 leukemia): > 100 µM
- TGI (MOLT-4 leukemia): > 100 µM
- GI50 (SK-OV-3 ovarian): 37.1 µM
- TGI (SK-OV-3 ovarian): > 100 µM
- GI50 (MCF7 breast): 7.31 µM
- TGI (MCF7 breast): 71.7 µM
- GI50 (SF-295 CNS): 17.4 µM
- TGI (SF-295 CNS): > 100 µM
- GI50 (CAKI-1 renal): 5.76 µM
- TGI (CAKI-1 renal): 33.3 µM
- GI50 (SNB-75 CNS): 10.3 µM
- TGI (SNB-75 CNS): 28.1 µM
- GI50 (A549 NSCLC): 19.3 µM
- TGI (A549 NSCLC): > 100 µM
- GI50 (HOP-92 NSCLC): 1.3 µM
- TGI (HOP-92 NSCLC): 23.6 µM
- GI50 (RXF 393 renal): 12.1 µM
- TGI (RXF 393 renal): 54.4 µM
- GI50 (NCI-H522 lung): > 100 µM
- TGI (NCI-H522 lung): > 100 µM
- GI50 (SW-620 colon): 14.1 µM
- TGI (SW-620 colon): 76.1 µM
- GI50 (SN12C renal): 2.54 µM
- TGI (SN12C renal): 10.1 µM
- GI50 (UO-31 renal): 17.7 µM
- TGI (UO-31 renal): > 100 µM
- GI50 (RPMI-8226 leukemia): 1.43 µM
- TGI (RPMI-8226 leukemia): 5.58 µM
- GI50 (NCI/ADR-RES ovarian): 10.4 µM
- TGI (NCI/ADR-RES ovarian): 34.3 µM
- GI50 (UACC-257 melanoma): 3.24 µM
- TGI (UACC-257 melanoma): 15.2 µM
- GI50 (EKVX NSCLC): 10.6 µM
- TGI (EKVX NSCLC): 40.1 µM
- GI50 (SK-MEL-5 melanoma): 4.42 µM
- TGI (SK-MEL-5 melanoma): 18.9 µM
